According to ChEMBL document CHEMBL1156829 (Proc Natl Acad Sci U S A, 2008):

Tests used:
Plasmodium falciparum [1] = test: NOVARTIS: Inhibition of Plasmodium falciparum 3D7 (drug-susceptible) proliferation in erythrocyte-based infection assay; assay type: functional, organism-based; details: Plasmodium falciparum, 3D7
Plasmodium falciparum [2] = test: NOVARTIS: Inhibition of Plasmodium falciparum W2 (drug-resistant) proliferation in erythrocyte-based infection assay; assay type: functional, organism-based; details: Plasmodium falciparum, W2; read-out: EC50
[3] = NOVARTIS: Cytotoxicity against human hepatocellular carcinoma cell line (Huh7); assay type: toxicity, cell-based, Huh-7; details: Huh7 cells (hepatocellular carcinoma cell line)

| SMILES | EC50 (Plasmodium falciparum [1]) [nM] | EC50 (Plasmodium falciparum [2]) [nM] | CC50 [3] [µM] |
| --- | --- | --- | --- |
| O[C@@H](c1cc(C(F)(F)F)nc2c(C(F)(F)F)cccc12)[C@H]1CCCCN1 | 51.7 | 2.37 | > 6.25 |
| CCCCCC(=O)N1c2ccccc2N=C2CC(c3ccc(OC)c(OC)c3)CC(O)=C2C1c1ccc(C(F)(F)F)cc1 (stereo not drawn) | 107 | 47 | > 100 |
| O=C(c1ccco1)N1CCN(c2ccc([N+](=O)[O-])c(NC3CC3)c2)CC1 | 100 | 44.5 | > 100 |
| CCCCCc1cc(O)c2c3c(c(=O)oc2c1)CN(C)CC3 | 49.4 | 37.6 | > 96.8 |
| CCOC(=O)C1=C(C)NC2=C(C(=O)C(C(=O)OC)C(C)C2)C1c1cc(Br)c(OCC)c(OC)c1 (stereo not drawn) | 255 | 39.6 | > 100 |
| COc1ccc(C2(CNCC(O)c3cccc([N+](=O)[O-])c3)CCCC2)cc1OC (stereo not drawn) | 490 | 52.5 | > 100 |
| CCCN(CCC)CC(O)COc1ccccc1C(=O)Nc1ccccc1 (stereo not drawn) | 365 | 51.1 | > 100 |
| CCCN(C(=O)C(=O)Nc1ccc2nc3n(c(=O)c2c1)CCCCC3)c1ccc(OCC)cc1 | 89.9 | 50.1 | > 100 |
| COc1cccc(-c2ccc(O)c(CNC34CC5CC(CC(C5)C3)C4)c2)n1 | 207 | 50 | > 100 |
| CCOC(=O)C1=C(C)NC2=C(C(=O)CC(c3ccc(Cl)cc3)C2)C1c1ccc(Cl)cc1 (stereo not drawn) | 89.4 | 51.5 | > 100 |
| CCSc1nc2sc3c(c2c(=O)n1-c1ccccc1)CCN(Cc1ccccc1)C3 | 85.8 | 34.8 | > 68.4 |
| NCCCC[C@H]1C(=O)Nc2ccc(O)cc2C(=O)N1C(C(=O)NCC(=O)O)c1cccnc1 (stereo partly drawn) | 115 | < 6.3 | > 12.1 |
| CC(CCc1ccccc1)N1CC(c2cccc([N+](=O)[O-])c2)OC1=S (stereo not drawn) | 307 | 18 | 32.8 |
| COC(=O)C1=C(C)NC2=C(C(=O)CC(c3ccc(OC)cc3)C2)C1c1ccc(F)cc1 (stereo not drawn) | 191 | 54.7 | > 100 |
| CC(=O)Oc1ccccc1-c1nc2cc(C)ccn2c1NC(C)(C)CC(C)(C)C | 389 | < 5.33 | > 10 |
| CCOC(=O)C1=C(C)NC2=C(C(=O)CC(c3ccc(OC)c(OC)c3)C2)C1c1cccc(C)c1 (stereo not drawn) | 236 | 57.2 | > 100 |
| COc1ccc(C2CC(=O)C3=C(C2)NC(C)=C(C(=O)OC(C)C)C3c2ccc(F)cc2)cc1OC (stereo not drawn) | 9.45 | 13.1 | 22.8 |
| CC1=C(C(=O)OC(C)C)C(c2ccc([N+](=O)[O-])cc2)C2=C(CC(c3ccc(Cl)cc3)CC2=O)N1 (stereo not drawn) | 1190 | 56.3 | > 100 |
| Nc1ccc(-c2nc3ccc(-c4nc5ccc(N)cc5[nH]4)cc3[nH]2)cc1 | 120 | 55.6 | > 100 |
| COc1cccc(-c2ccc(O)c(CN3CCCCC3)c2)n1 | 469 | 54.7 | > 95.8 |
| COc1ccc(C2CC(=O)C3=C(C2)NC(C)=C(C(=O)OC(C)C)C3c2cccc(C)c2)cc1OC (stereo not drawn) | 82.1 | 19.1 | 54.8 |
| COc1ccc(NC(=O)C2c3ccccc3C(=O)N(CC(C)C)C2c2cccs2)cc1Cl (stereo not drawn) | 91.4 | 55.6 | > 100 |

| SMILES | EC50 (Plasmodium falciparum [1]) [nM] | EC50 (Plasmodium falciparum [2]) [nM] | CC50 [3] [µM] |
| --- | --- | --- | --- |
| CCCCNC(=O)C(c1cccc(OC)c1)N1C(=O)c2cc(Oc3ccccc3)ccc2NC(=O)C1CO (stereo not drawn) | 181 | < 8 | > 14 |
| Cc1cc(C)nc(/N=C(\N)Nc2ccccc2O)n1 | 379 | 36.2 | > 100 |
| Oc1ccc(-c2ccc(F)cc2)cc1CNC1CCCCC1 | 40.2 | 6.28 | 17.4 |
| CC1=C(C(=O)OC(C)C)C(c2ccccc2F)C2=C(CC(c3ccc(Cl)cc3)CC2=O)N1 (stereo not drawn) | 109 | 35.1 | > 100 |
| CC(=O)NC(c1ccc(N(C)C)cc1)c1cc(Cl)c2cccnc2c1O (stereo not drawn) | 651 | 39.3 | > 100 |
| COC(=O)C1=C(C)NC(=Cc2cc(C)n(-c3ccccc3F)c2C)C1=O | 20 | 38.3 | > 100 |
| COCCOC(=O)C1=C(C)NC2=C(C(=O)CC(c3ccc(OC)c(OC)c3)C2)C1c1ccc(F)cc1 (stereo not drawn) | 38.2 | 17.7 | 46.8 |
| CCOC(=O)C1=C(C)NC2=C(C(=O)C(C(=O)OC)C(C)C2)C1c1cc(Br)c(OC)c(OC)c1 (stereo not drawn) | 537 | 40.4 | > 100 |
| N#Cc1c2c(c(N3CCN(Cc4ccc(F)cc4)CC3)n3c1nc1ccccc13)CCC2 | 19.8 | 37.7 | > 100 |
| CCOC(=O)C(=O)N1c2ccc(C)cc2-c2c(ssc2=S)C1(C)C | 46.5 | 37.7 | > 100 |
| CCOc1ccc(NC(=O)C2c3ccccc3C(=O)N(CC(C)C)C2c2cccs2)cc1 (stereo not drawn) | 78.3 | 36.7 | > 100 |
| O[Si](CCCN1CCCCC1)(c1ccccc1)C1CCCCC1 (stereo not drawn) | 23.6 | 12.1 | 33 |
| COc1ccc(C2CC(=O)C3=C(C2)NC(C)=C(C(=O)OC2CCCC2)C3c2ccc(SC)cc2)cc1OC (stereo not drawn) | 249 | 36.5 | > 100 |
| CCC(C)OC(=O)C1=C(C)NC2=C(C(=O)CC(c3ccc(Cl)cc3)C2)C1c1ccc(Cl)cc1 (stereo not drawn) | 216 | 43.8 | > 100 |
| CCOC(=O)C1=C(C)NC2=C(C(=O)CC(c3ccc(Cl)cc3)C2)C1c1ccc(F)cc1 (stereo not drawn) | 95 | 42.8 | > 100 |
| COC(=O)C1=C(C)NC2=C(C(=O)CC(c3ccc(OC)c(OC)c3)C2)C1c1cccc(O)c1 (stereo not drawn) | 92 | 50 | > 100 |
| Cc1cc(NC(=O)C2c3ccccc3C(=O)N(CC(C)C)C2c2cccs2)no1 (stereo not drawn) | 85.6 | 45.3 | > 100 |
| CCOCCCNc1nc2cc(OC)c(OC)cc2c2nc(-c3ccccc3)nn12 | 83.1 | 56.3 | > 100 |
| COc1ccc(C2CC(=O)C3=C(C2)NC(C)=C(C(=O)OC2CCCC2)C3c2ccc(F)cc2)cc1 (stereo not drawn) | 98.6 | 41.6 | > 100 |
| Cc1nc(-c2ccccc2)nc(C(=O)N2CCN(C(=O)NC3CCCCC3)C(C)C2)c1C(=O)OC(C)C (stereo not drawn) | 84.4 | 41.7 | > 100 |
| CCCOC(=O)C1=C(C)NC2=C(C(=O)CC(c3ccc(OC)c(OC)c3)C2)C1c1ccc(Br)cc1 (stereo not drawn) | 37.7 | 46.9 | > 100 |
| O=C(NCCc1nc(-c2ccncc2)n[nH]1)C12CC3CC(CC(C3)C1)C2 | > 12500 | 44.9 | > 100 |

| SMILES | EC50 (Plasmodium falciparum [1]) [nM] | EC50 (Plasmodium falciparum [2]) [nM] | CC50 [3] [µM] |
| --- | --- | --- | --- |
| CCOC(=O)C1=C(CC)NC2=C(C(=O)CC(C)(C)C2)C1c1ccc(Cl)cc1Cl (stereo not drawn) | 208 | 45.9 | > 100 |
| c1ccc([B-](c2ccccc2)(c2ccccc2)c2ccccc2)cc1 | 124 | 44.8 | > 100 |
| CCC(=O)Nc1cc(NC(=O)CSc2nc(C)c(CC)c(O)n2)ccc1C | > 1250 | 1.61 | 3.92 |
| Cc1cc(Nc2ccc(Br)c(C)c2)n2nc(C)nc2n1 | 53 | 45.8 | > 100 |
| CCCOC(=O)C1=C(C)NC2=C(C(=O)CC(c3ccc(OC)c(OC)c3)C2)C1c1ccccc1Cl (stereo not drawn) | 66.2 | 44.8 | > 100 |
| COc1ccc(C2CC3=NC(C)=C(C(=O)OC(C)C)C(c4ccccc4OC)C3=C(O)C2)cc1OC (stereo not drawn) | 91.9 | 39.8 | > 100 |
| C[n+]1ccc(/C=C/c2ccccc2F)c2ccccc21 | 65.3 | < 5.24 | > 10 |
| CCOC(=O)C1=C(CC)NC2=C(C(=O)CC(C)(C)C2)C1c1ccc(Br)cc1 (stereo not drawn) | 408 | 44.1 | > 100 |
| CCOC(=O)C1=C(C)NC2=C(C(=O)CC(c3ccc(OC)cc3)C2)C1c1cccc(F)c1 (stereo not drawn) | 137 | 50.4 | > 100 |
| O=[N+]([O-])c1ccc(S(=O)(=O)N2CCN(C(=S)NCc3ccccc3)CC2)cc1 | 79.6 | 38 | > 100 |
| O=S(=O)(ON=C1CCCc2sc(Cl)cc21)c1ccccc1 | 158 | 40.9 | > 100 |
| NC(=S)NN=Cc1cc([N+](=O)[O-])ccc1O | 68.6 | 52 | > 100 |
| Cn1c2c([n+](C)c1CCl)C(=O)c1ccccc1C2=O | 3.1 | 3.55 | > 10 |
| Oc1ccc(-c2ccc3c(c2)OCO3)cc1CNCC1(N2CCCCC2)CCCCC1 | 291 | 35.4 | > 100 |
| Cc1cccc(Nc2c3c(c(C#N)c4nc5ccccc5n24)CCC3)c1 | 92.6 | 51.8 | > 100 |
| OC(Cn1cnc(-c2ccccc2)c1-c1ccccc1)Cn1c2ccc(Br)cc2c2cc(Br)ccc21 (stereo not drawn) | 952 | 53.2 | > 100 |
| CC(C)(C)NC(=S)NN=CC=NNC(=S)NC(C)(C)C | 210 | 56.9 | > 100 |
| COc1cccc(-c2ccc(O)c(CNCC3CCCCC3)c2)n1 | 58.5 | 17.7 | 46.6 |
| CCCOC(=O)C1=C(C)NC2=C(C(=O)CC(c3ccc(OC)cc3)C2)C1c1ccc([N+](=O)[O-])cc1 (stereo not drawn) | 281 | 51.4 | > 100 |
| CC(Cc1ccccc1)NCc1ccccc1O (stereo not drawn) | 525 | < 4.93 | > 10 |
| CCOC(=O)C1=C(C)NC2=C(C(=O)CC(c3ccc(OC)c(OC)c3)C2)C1c1ccccc1OC (stereo not drawn) | 74.1 | 49.2 | > 100 |
| CCOC(=O)C1=C(C)NC2=C(C(=O)CC(c3ccc(Cl)cc3)C2)C1c1ccccc1Cl (stereo not drawn) | 44.2 | 40.8 | > 100 |
